Entries after “also recorded” stand apart in the source; their conditions may differ. Where no end group is shown, it is not given here.
Columns and labels:
[1] = test system: truncated rat PTH-1 receptor (rΔNt); test: cAMP response in COS-7 cells transiently transfected with truncated rat PTH-1 receptor (rΔNt); format: cell-based; settings: COS-7 cells, cAMP
From the text: (§1) FIG. 4. PTH Responses of Intact and Truncated PTH-1 Receptors in COS-7 Cells. Shown at the top are schematics of the intact (A) and truncated (B) rat PTH-1 receptors used for transient transfection of COS-7 cells, and subsequent cAMP response assays. The conserved extracellular cysteine residues are depicted as open circles and numbered according to sequence position, and the nine amino acids of the epitope tag (HA) in rWT-HA are shaded. The tics at residue 26 and 181 indicate the endpoints of the deletion in rΔNt. Based on the predicted signal peptide cleavage site at Ala-22, residues 23–25 in rΔNt are joined to residue 182. The cAMP responses of COS-7 cells expressing the intact receptor (C) and rΔNt (D) to rPTH(1–34) (J) or rPTH(1–14) (C) are also shown. The graphs show combined data (mean±s.e.m.) from five separate experiments, each performed in duplicate. […]
(§2) FIG. 6. Specificity of the Truncated Ligand and PTH Receptor. COS-7 cells transiently transfected with either rWT-HA (A), rΔNt (B), or the intact rat secretin receptor (C), were treated with the indicated peptides for 60 min at 22° C., and the resulting intracellular cAMP levels were quantified by RIA. Concentration of peptides present during the incubations were: rPTH(1–34), 0.1 mM; rPTH(1–14) 100 mM; secretin(1–27). […] Shown are data (mean±s.e.m.) from one experiment performed in duplicate, and this was repeated twice more with equivalent results.
(§3) For studies with the intact and truncated rat PTH-1 receptors, transient transfections of COS-7 cells were performed using DEAE-dextran as described previously (Bergwitz, C., et al., J. Biol. Chem. 272:28861–28868)). The construction and initial characterization of the pCDNA-1 based plasmids encodin either the intact or truncated rat PTH-1 receptor has been described previously (Lee, C., et al., Endocrinology 135(4):1488–1495)). […] The truncated rat PTH-1 receptor (rΔNt) is deleted for exons E1 through exon G (residues 26 to 181). Assuming that signal peptidase cleavage occurs between Ala-22 and Tyr-23 (Nielsen, H., et al., Protein Engineering 10:1–6 (1997)), rΔNt is predicted to have for its N-terminus residues Dautzenberg, F., et al., Proc. Natl. Acad. Sci. 95:4941–4946 (1998); Holtmann, M., et al., J. Biol. Chem. 270:14394–14398 (1995); DeAlmeida, V. and Mayo, K., Mol. Endo. 12:750–765 (1998)) joined to Glu-182 (FIG. 3B). COS-7 cells were transfected in 24-well plates when the cells were 85 to 95% of confluency, using 200 ng of plasmid DNA that was purified by cesium chloride/ethidium bromide gradient centrifugation for each well. Assays were conducted 72 to 96 hours after transfection. Under these conditions about ˜20% of the COS-7 cells become transfected and express about 5×10^6 surface PTH receptors per cell (Bergwitz, C., et al., J. Biol. Chem. 272:28861–28868)).
(§4) Intracellular cyclic AMP: Transfected COS-7 or HKRK-B7 cells were rinsed with 500 ml of binding buffer, (50 mM Tris-HCl, pH 7.7, 100 mM NaCl, 5 mM KCl, 2 mM CaC12, 5% heat-inactivated horse serum, 0.5% heat-inactivated fetal bovine serum) and 200 ml of IBMX buffer (DMEM containing 2 mM IBMX, 1 mg/ml bovine serum albumin, 35 mM Hepes-NaOH, pH 7.4) and […] of binding buffer or binding buffer containing various amounts of peptide were added. The plates were incubated for 60 minutes at room temperature. The buffer was then withdrawn and the cells were frozen on dry ice, treated with 0.5 ml of 50 mM HCl, and refrozen. After the thawing, the lysate was diluted 30-fold in dH20 and an aliquot was analyzed for cAMP content by determined radioimmunoassay using unlabeled cAMP as a standard.
(§5) Experiments utilized COS-7 cells transfected with either the intact rat PTH-1 receptor (rWT-HA, FIG. 4A) or a truncated rat PTH-1 receptor with most of the amino-terminal extracellular domain deleted (rΔNt, FIG. 4B).

[2] = biological target: T1, truncated rat PTH-1 receptor (rΔNt) (Rattus norvegicus, UniProt P25961, E586G); test: as above; format: cell-based; settings: for cAMP response of cells expressing rΔNt (in words): secretin(1–27) 1 mM
T1 construct: contains an open reading frame encoding a protein of about 435 amino acid residues; expressed in transfected cells; host or cells: COS-7, transient (DEAE-dextran), pCDNA-1 based plasmid
T1 sequence (P25961 with tags, fused parts or gaps E586G): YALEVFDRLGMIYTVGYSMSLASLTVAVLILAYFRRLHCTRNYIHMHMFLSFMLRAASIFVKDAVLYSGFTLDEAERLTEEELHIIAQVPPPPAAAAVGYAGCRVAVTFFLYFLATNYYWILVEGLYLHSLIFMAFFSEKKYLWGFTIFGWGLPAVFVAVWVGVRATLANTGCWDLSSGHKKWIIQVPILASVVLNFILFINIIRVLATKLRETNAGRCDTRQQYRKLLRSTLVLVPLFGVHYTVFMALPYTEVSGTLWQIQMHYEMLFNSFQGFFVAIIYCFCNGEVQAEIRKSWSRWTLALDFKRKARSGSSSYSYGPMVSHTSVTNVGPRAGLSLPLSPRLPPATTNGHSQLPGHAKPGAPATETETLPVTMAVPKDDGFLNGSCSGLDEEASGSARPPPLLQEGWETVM
From the text: as §1, §2, §3, §4, §5

CCCC[C@H](NC(=O)[C@H](CCCNC(=N)N)NC(=O)[C@H](CCC(=O)O)NC(=O)[C@@H](NC(=O)[C@H](CO)NC(=O)[C@H](C)NC(=O)[C@H](CC(C)C)NC(=O)[C@H](Cc1c[nH]cn1)NC(=O)[C@H](CCCCN)NC(=O)CNC(=O)[C@H](CC(C)C)NC(=O)[C@H](CC(N)=O)NC(=O)[C@H](Cc1c[nH]cn1)NC(=O)[C@H](CCCC)NC(=O)[C@H](CC(C)C)NC(=O)[C@H](CCC(N)=O)NC(=O)[C@@H](NC(=O)[C@H](CCC(=O)O)NC(=O)[C@H](CO)NC(=O)[C@@H](NC(=O)[C@H](C)N)C(C)C)[C@@H](C)CC)C(C)C)C(=O)N[C@@H](CCC(N)=O)C(=O)N[C@@H](Cc1c[nH]c2ccccc12)C(=O)N[C@@H](CC(C)C)C(=O)N[C@@H](CCCNC(=N)N)C(=O)N[C@@H](CCCCN)C(=O)N[C@@H](CCCCN)C(=O)N[C@@H](CC(C)C)C(=O)N[C@@H](CCC(N)=O)C(=O)N[C@@H](CC(=O)O)C(=O)N[C@H](C(=O)N[C@@H](Cc1c[nH]cn1)C(=O)N[C@@H](CC(N)=O)C(=O)N[C@@H](Cc1ccc(O)cc1)C(N)=O)C(C)C [PTH(1–34), [Nle^8,21,Tyr^34]rPTH-(1–34)NH2]
decrease in potency with rΔNt as compared to potency with rWT-HA [1]: 100 fold | greater potency with rΔNt in comparison to the potency of PTH(1–14) ([2]; COS-7 cells, cAMP): 100 fold | cAMP response of cells expressing rΔNt (in words) [2]: responded

PTH(1–14): Amino-terminal peptide fragment based on the rat PTH sequence, residues 1–14, C-terminally amidated (AVSEIQLMHNLGKH-NH2)
potency/activity with rΔNt compared with rWT-HA (in words) [1]: equipotent with the two receptors; also recorded: equivalent activity; also recorded: not affected | potency relative to PTH(1–34) with rΔNt ([2]; COS-7 cells transfected with rΔNt): only two orders of magnitude weaker | cAMP response of cells expressing rΔNt (in words) [2]: responded

— patent publication US7169567B1, “Screening assay utilizing the PTH receptor” (The General Hospital Corporation, priority 1998, dated 2007)
